# Source: ChEMBL document CHEMBL3259645, “Design and synthesis of spirocyclic compounds as HCV replication inhibitors by targeting viral NS4B protein” (Bioorg Med Chem Lett, 2014)
# Experiments:
# [1] = Cytotoxicity against human HuH7 cells infected with Hepatitis C virus genotype 1b; assay type: cell-based, Huh-7
# Hepatitis C virus [2] = test: Antiviral activity against Hepatitis C virus genotype 1a infected in human HuH7 cells assessed as inhibition of replicon replication after 48 hrs by luciferase reporter gene assay; assay type: functional, cell-based, Hepacivirus hominis; conditions: subtype 1a, Huh-7, 48 h
# Hepatitis C virus [3] = test: Antiviral activity against Hepatitis C virus genotype 1b infected in human HuH7 cells assessed as inhibition of replicon replication after 48 hrs by luciferase reporter gene assay; assay type: functional, cell-based, Hepacivirus hominis; conditions: Huh-7, 48 h
# [4] = Displacement of biotinylated anti-His antibody from C-terminal 6X His-tagged Hepatitis C virus genotype 1b NS4B expressed in baculovirus-infected Sf9 cells by microplate assay; design: species or system Hepatitis C virus subtype 1b
# [5] = Kinetic solubility of the compound at pH 7.4; assay type: physicochemical; conditions: buffer, read-out: Kinetic_solubility
# [6] = Half life in human hepatocytes; assay type: ADME, cell-based, Hepatocyte
# [7] = Half life in rat hepatocytes; assay type: ADME, cell-based, Hepatocyte
# [8] = Clearance in rat at 1 mg/kg, iv; assay type: ADME, organism-based; design: dose 1 mg/kg, route intravenous; conditions: in vivo
# [9] = Volume of distribution at steady state in rat at 1 mg/kg, iv and 5 mg/kg, po; assay type: ADME, organism-based; conditions: in vivo, read-out: Vdss
# [10] = Cmax in rat at 5 mg/kg, po; assay type: ADME, organism-based; design: dose 5 mg/kg, route oral; conditions: in vivo
# [11] = AUC (0 to 24 hrs) in rat at 5 mg/kg, po; assay type: ADME, organism-based; design: time < 24 hr, dose 5 mg/kg, route oral; conditions: plasma
# [12] = Oral bioavailability in rat at 5 mg/kg; assay type: ADME, organism-based; conditions: in vivo
# Hepatitis C virus [13] = test: Antiviral activity against Hepatitis C virus genotype 1b harboring NS4B H94N mutant infected in human HuH7 cells assessed as inhibition of replicon replication after 48 hrs by luciferase reporter gene assay; assay type: functional, cell-based, Hepacivirus hominis; conditions: Huh-7, 48 h
# Hepatitis C virus [14] = test: Antiviral activity against Hepatitis C virus genotype 1b harboring NS4B V105M mutant infected in human HuH7 cells assessed as inhibition of replicon replication after 48 hrs by luciferase reporter gene assay; assay type: functional, cell-based, Hepacivirus hominis; conditions: Huh-7, 48 h
# Hepatitis C virus [15] = test: Ratio of EC50 for Hepatitis C virus genotype 1b harboring NS4B H94N mutant infected in human HuH7 cells to EC50 for wild type Hepatitis C virus genotype 1b infected in human HuH7 cells; assay type: functional, Hepacivirus hominis, Huh-7
# Hepatitis C virus [16] = test: Ratio of EC50 for Hepatitis C virus genotype 1b harboring NS4B V105M mutant infected in human HuH7 cells to EC50 for wild type Hepatitis C virus genotype 1b infected in human HuH7 cells; assay type: functional, Hepacivirus hominis, Huh-7
# Hepatitis C virus [17] = test: Antiviral activity against Hepatitis C virus genotype 2a; assay type: functional, Hepacivirus hominis
Structure (SMILES),CC50 [1],EC50 (Hepatitis C virus [2]),EC50 (Hepatitis C virus [3]),further results
CN1CC2(CCN(C(=O)c3nn4c(C(F)(F)F)cc(C5CC5)cc4c3Cl)CC2)CC1=O,> 50 µM,184 nM,69.2 nM,
O=C1CC2(CCN(C(=O)c3nn4c(C(F)(F)F)cc(C5CC5)cc4c3Cl)CC2)CN1,> 50 µM,441 nM,1580 nM,
CN1CC2(CCN(C(=O)c3nn4c(C(F)(F)F)cc(C5CC5)cc4c3Cl)CC2)OC1=O,> 50 µM,2 nM,3.4 nM,IC50 [4]: 23.4 nM; solubility kinetic [5]: 267 µg/mL; half-life [6]: 66 min; half-life [7]: 80 min; clearance [8]: 56.5 mL/min/kg; Vd [9]: 2.1 L/kg; Cmax [10]: 269 ng/mL; AUC(0-t) at 24 h [11]: 1060 ng·h/mL; bioavailability [12]: 72%; EC50 (Hepatitis C virus [13]): 42.7 nM; EC50 (Hepatitis C virus [14]): 20.4 nM; Ratio EC50 (Hepatitis C virus [15]): 12.5; Ratio EC50 (Hepatitis C virus [16]): 6; EC50 (Hepatitis C virus [17]): 6.84 µM
O=C1OC2(CCN(C(=O)c3nn4c(C(F)(F)F)cc(C5CC5)cc4c3Cl)CC2)CN1CCO,> 50 µM,23.2 nM,78.5 nM,
CN1C[C@@]2(CCN(C(=O)c3nn4c(C(F)(F)F)cc(C5CC5)cc4c3Cl)C[C@H]2O)OC1=O,> 50 µM,14.5 nM,7 nM,
O=C1COC2(CCN(C(=O)c3nn4c(C(F)(F)F)cc(C5CC5)cc4c3Cl)CC2)OC1,> 50 µM,18 nM,19.1 nM,
O=C(c1nc2c(C(F)(F)F)cc(Br)cn2c1Cl)N1CCC(N2CCOC2=O)CC1,,31.4 nM,45.5 nM,
O=C(c1nn2c(C(F)(F)F)cc(C3CC3)cc2c1Cl)N1CCC2(OCC3(CC3)CO2)[C@H](O)C1,> 50 µM,1.5 nM,1.2 nM,IC50 [4]: 10.2 nM; solubility kinetic [5]: 323 µg/mL; half-life [6]: 50 min; half-life [7]: 28 min; clearance [8]: 35.7 mL/min/kg; Vd [9]: 0.8 L/kg; Cmax [10]: 1130 ng/mL; AUC(0-t) at 24 h [11]: 2790 ng·h/mL; bioavailability [12]: > 100%; EC50 (Hepatitis C virus [13]): 35.9 nM; EC50 (Hepatitis C virus [14]): 172 nM; Ratio EC50 (Hepatitis C virus [15]): 29.9; Ratio EC50 (Hepatitis C virus [16]): 143; EC50 (Hepatitis C virus [17]): 11.3 µM
O=C(c1nn2c(C(F)(F)F)cc(C3CC3)cc2c1Cl)N1CCC2(OCC3(CC3)CO2)[C@@H](O)C1,> 50 µM,32.5 nM,8.2 nM,
CN1C[C@@]2(CCN(C(=O)c3nn4c(C(F)(F)F)cc(C5CC5)cc4c3Cl)C[C@@H]2O)OC1=O,> 50 µM,10.9 nM,6.1 nM,IC50 [4]: 30.4 nM; solubility kinetic [5]: 310 µg/mL; half-life [6]: 123 min; half-life [7]: 132 min; clearance [8]: 25.7 mL/min/kg; Vd [9]: 2 L/kg; Cmax [10]: 344 ng/mL; AUC(0-t) at 24 h [11]: 1530 ng·h/mL; bioavailability [12]: 49%; EC50 (Hepatitis C virus [13]): 175 nM; EC50 (Hepatitis C virus [14]): 1130 nM; Ratio EC50 (Hepatitis C virus [15]): 27.3; Ratio EC50 (Hepatitis C virus [16]): 185; EC50 (Hepatitis C virus [17]): 38 µM
O=C(c1nn2c(C(F)(F)F)cc(C3CC3)cc2c1Cl)N1CCC2(CC1)OCC(O)CO2,> 50 µM,19.5 nM,13.8 nM,
O=C(c1nn2c(C(F)(F)F)cc(C3CC3)cc2c1Cl)N1CCC2(CC1)OCC1(CO2)CC(O)C1,> 50 µM,2.2 nM,14.2 nM,
CC1(C)COC2(CCN(C(=O)c3nn4c(C(F)(F)F)cc(C5CC5)cc4c3Cl)CC2)OC1,> 25 µM,23.8 nM,9.8 nM,
CN1C[C@]2(CCN(C(=O)c3nn4c(C(F)(F)F)cc(C5CC5)cc4c3Cl)C[C@@H]2O)OC1=O,> 50 µM,3560 nM,3990 nM,
CC1COC2(CCN(C(=O)c3nn4c(C(F)(F)F)cc(C5CC5)cc4c3Cl)CC2)OC1,> 50 µM,7.4 nM,1.2 nM,
CCN1CC2(CCN(C(=O)c3nn4c(C(F)(F)F)cc(C5CC5)cc4c3Cl)CC2)OC1=O,> 50 µM,20.6 nM,5.9 nM,
O=C(c1nn2c(C(F)(F)F)cc(C3CC3)cc2c1Cl)N1CCC2(CC1)OCCCO2,> 50 µM,33.8 nM,6.1 nM,
O=C(c1nn2c(C(F)(F)F)cc(C3CC3)cc2c1Cl)N1CCC2(CC1)OCCO2,> 50 µM,299 nM,161 nM,
O=C(c1nn2c(C(F)(F)F)cc(C3CC3)cc2c1Cl)N1CCCC2(C1)OCCCO2,> 50 µM,> 500 nM,> 500 nM,
O=C(c1nn2c(C(F)(F)F)cc(C3CC3)cc2c1Cl)N1CCC2(CC1)OCC1(CC1)CO2,> 50 µM,9 nM,4.1 nM,IC50 [4]: 32 nM; solubility kinetic [5]: 105 µg/mL; half-life [6]: 30 min; half-life [7]: < 15 min; clearance [8]: 37.8 mL/min/kg; Vd [9]: 4.5 L/kg; Cmax [10]: 254 ng/mL; AUC(0-t) at 24 h [11]: 693 ng·h/mL; bioavailability [12]: 29%; EC50 (Hepatitis C virus [13]): 24.3 nM; EC50 (Hepatitis C virus [14]): 67.6 nM; Ratio EC50 (Hepatitis C virus [15]): 5.9; Ratio EC50 (Hepatitis C virus [16]): 16.5; EC50 (Hepatitis C virus [17]): 6.84 µM
O=C1OC2(CCN(C(=O)c3nn4c(C(F)(F)F)cc(C5CC5)cc4c3Cl)CC2)CN1CC1CC1,> 50 µM,18.1 nM,23.4 nM,
O=C(c1nn2c(C(F)(F)F)cc(C3CC3)cc2c1Cl)N1CCC2(OCC3(CC3)CO2)C(O)C1 (stereo not given),> 50 µM,4.3 nM,2.2 nM,
CN1C[C@]2(CCN(C(=O)c3nn4c(C(F)(F)F)cc(C5CC5)cc4c3Cl)C[C@H]2O)OC1=O,> 50 µM,16.7 nM,7.2 nM,
O=C(c1nn2c(C(F)(F)F)cc(C3CC3)cc2c1Cl)N1CCC2(CC1)OCC(c1ccccc1)CO2,> 50 µM,42.2 nM,209 nM,
O=C(c1nn2c(C(F)(F)F)cc(C3CC3)cc2c1Cl)N1CCC2(CC1)OCCCCO2,> 25 µM,46.3 nM,8 nM,
O=C1OC2(CCN(C(=O)c3nn4c(C(F)(F)F)cc(C5CC5)cc4c3Cl)CC2)CN1Cc1ccccc1,> 50 µM,427 nM,457 nM,
O=C(c1nn2c(C(F)(F)F)cc(C3CC3)cc2c1Cl)N1CCC2(CC1)OCC1(COC1)CO2,> 50 µM,14.4 nM,3.2 nM,
O=C(c1nn2c(C(F)(F)F)cc(C3CC3)cc2c1Cl)N1CCC2(OCC3(CC3)CO2)C(=O)C1,> 50 µM,5.1 nM,3.8 nM,
O=C1NCC2(CCN(C(=O)c3nn4c(C(F)(F)F)cc(C5CC5)cc4c3Cl)CC2)O1,> 50 µM,166 nM,55.4 nM,
O=C(c1nn2c(C(F)(F)F)cc(C3CC3)cc2c1Cl)N1CCC2(CC1)OCC1(CCC1)CO2,> 50 µM,5.1 nM,7.6 nM,
